From US9896458B2, “Compounds, compositions and methods” (Denali Therapeutics Inc., priority 0216, dated 2018)
Read-outs that look alike come from different tables or passages of the source. Values belong to the compound of their own block, whether it stands above or below them.

Tests used:
[1] = cynomolgus monkey, in vivo
[2] = in vivo
[3] = Metabolic stability (hepatocytes); type: in vitro ADME; conditions: human cryopreserved hepatocytes, well-stirred model
Excerpt: Hepatic clearance is expressed as mL/min/kg.

[4] = in vivo; remark: listed apart in the source
[5] = system: FADD-deficient Jurkat cells; assay: cellular necroptosis assay (human TNFα induced); type: cell-based; conditions: 48 h, human TNFα 10 ng/mL, viability after 48 h, CellTiter-Glo, read-out: Cell IC50
[6] = system: TNF/zVAD induced temperature loss; conditions: dose of 30 mg/kg, from WO 2014/125444 Table 2; cited from earlier work
[7] = system: TNF/zVAD induced temperature loss; assay: TNF-driven systemic inflammatory response syndrome model (TNF/zVAD); type: in vivo; conditions: mice, 5 mg/kg oral, 15 minutes before intravenous TNF/zVAD
Excerpt: The in vivo efficacy of compounds can be determined in mice using a TNF-driven systemic inflammatory response syndrome model as described by Duprez et. al. (2011, Immunity 35(6), 908-918) and Berger et. al. (2015, Cell Death Disc. 1, 15009). In this model system TNF/zVAD (tumor necrosis factor/Z-Val-Ala-DL-Asp-fluoromethylketone, a caspase inhibitor) treatment results in temperature loss and the production of several inflammatory cytokines. The ability of a test compound to inhibit these inflammatory effects can be measured in this model by dosing mice with test compound 15 minutes before administration of TNF/zVAD and measuring the inflammatory response. The dose required to inhibit the inflammatory response is a measure of the compounds efficacy at that dose. Using this model, Compound 42 was orally pre-dosed at 5 mg/kg 15 minutes before intraveneous administration of TNF/zVAD and temperature loss in the mice was measured by an implanted temperature chip. […] The decrease in dosing has a number of important potential advantages, including requiring less frequent administration to a patient, increased patient compliance, and improved safety profile such as lower toxicities while achieving similar efficacy.

[8] = male, Sprague-Dawley Crl:CD(SD)

SMILES: CN1C(=O)[C@@H](NC(=O)c2nnc(C3(c4ccccc4)CC3)o2)COc2cccnc21 [Example 66, (S)-N-(5-methyl-4-oxo-2,3,4,5-tetrahydropyrido[3,2-b][1,4]oxazepin-3-yl)-5-(1-phenylcyclopropyl)-1,3,4-oxadiazole-2-carboxamide]
Human hepatocyte CLhep Avg [3]: 6.3 mL/min/kg
Dog unbound CL ([4]; male, Beagle): 36 mL/min/kg

SMILES: CN1C(=O)[C@@H](NC(=O)c2cn(Cc3ccccc3)nn2)[C@H]2C[C@H]2c2nccnc21 [Example 195, 1-benzyl-N-((7S,7aS,8aR)-5-methyl-6-oxo-5,6,7,7a,8,8a-hexahydrocyclopropa[d]pyrazino[2,3-b]azepin-7-yl)-1H-1,2,3-triazole-4-carboxamide]
IC50 [5]: 0.016 µM

SMILES: CN1C(=O)[C@@H](NC(=O)c2cc(Cc3ccccc3)on2)COc2ccccc21 [C, reference compound]
Human hepatocyte CLhep Avg [3]: 19 mL/min/kg

SMILES: O=C(N[C@@H]1C(=O)Nc2c(F)cc(F)cc2[C@@H]2C[C@H]12)c1nnc(Cc2ccccc2)[nH]1 [Example 83A, 5-benzyl-N-((1aS,2S,8bR)-5,7-difluoro-3-oxo-1,1a,2,3,4,8b-hexahydrobenzo[b]cyclopropa[d]azepin-2-yl)-4H-1,2,4-triazole-3-carboxamide]
Cyno unbound CL ([1]; male): 82 mL/min/kg
Human hepatocyte CLhep Avg [3]: 1.0 mL/min/kg

SMILES: CN1C(=O)[C@@H](NC(=O)c2nnc(Cc3ccccc3)[nH]2)COc2ccccc21 [A, reference compound]
Rat unbound CL [2, 8]: 77 mL/min/kg
Human hepatocyte CLhep Avg [3]: 6.8 mL/min/kg
inhibition of temperature loss [6]: 93%
Dog unbound CL ([4]; male, Beagle): 240 mL/min/kg

SMILES: CN1C(=O)[C@@H](NC(=O)c2nnc(Cc3ccccc3)[nH]2)[C@H]2C[C@H]2c2cccnc21 [Example 75A, 5-benzyl-N-((1aS,2S,8bR)-4-methyl-3-oxo-1,1a,2,3,4,8b-hexahydrocyclopropa[d]pyrido[2,3-b]azepin-2-yl)-4H-1,2,4-triazole-3-carboxamide]
Cyno unbound CL ([1]; male): 93 mL/min/kg
Rat unbound CL [2, 8]: 91 mL/min/kg
Human hepatocyte CLhep Avg [3]: 9.1 mL/min/kg

SMILES: CN1C(=O)[C@@H](NC(=O)c2nnc(Cc3ccccc3)o2)COc2ccccc21 [B, reference compound]
Human hepatocyte CLhep Avg [3]: 14 mL/min/kg

SMILES: CN1C(=O)[C@@H](NC(=O)c2cc(C3(c4ccccc4)CC3)on2)COc2cccnc21 [Example 77, (S)-N-(5-methyl-4-oxo-2,3,4,5-tetrahydropyrido[3,2-b][1,4]oxazepin-3-yl)-5-(1-phenylchclopropyl)isoxazole-3-carboxamide]
Human hepatocyte CLhep Avg [3]: 19 mL/min/kg

SMILES: CN1C(=O)[C@@H](NC(=O)c2nnc(Cc3ccccc3)[nH]2)COc2cccnc21 [Example 42, (S)-5-benzyl-N-(5-methyl-4-oxo-2,3,4,5-tetrahydropyrido[3,2-b][1,4]pxazepin-3-yl)-4H-1,2,4-triazole-3-carboxamide]
Human hepatocyte CLhep Avg [3]: 0.8 mL/min/kg
inhibition of temperature loss [7]: 96%

SMILES: CN1C(=O)[C@@H](NC(=O)c2cc(C3(c4ccccc4)CC3)on2)COc2ccccc21 [Example 8, (S)-N-(5-methyl-4-oxo-2,3,4,5-tetrahydrobenzo[b][1,4]oxazepin-3-yl)-5-(1-phenylcyclopropyl)isoxazole-3-carboxamide]
Rat unbound CL [2, 8]: 3700 mL/min/kg

SMILES: O=C(N[C@H]1COc2ccccc2-n2ccnc21)c1cc(Cc2ccccc2)on1 [Example 70A, (R)-5-benzyl-N-(4,5-dihydrobenzo[b]imidazo[1,2-d][1,4]oxazepin-4-yl)isoxazole-3-carboxamide]
IC50 [5]: 0.0001 to 1 µM

SMILES: CN1C(=O)[C@@H](NC(=O)c2nc(Cc3ccccc3)n[nH]2)COc2cccnc21 [Example 42]
Cyno unbound CL [1]: 42 mL/min/kg
Rat unbound CL [2]: 22 mL/min/kg
Dog unbound CL [4]: 64 mL/min/kg

Other lines, results leading:

Cyno unbound CL [1]: 58 mL/min/kg
Rat unbound CL [2]: 55 mL/min/kg
SMILES: CN1C(=O)[C@@H](NC(=O)c2nnc(Cc3ccccc3)o2)[C@H]2C[C@H]2c2nccnc21 [Example 177A]

Cyno unbound CL ([1]; male): 140 mL/min/kg
Rat unbound CL [2, 8]: 100 mL/min/kg
SMILES: C[C@H]1Oc2cccnc2N(C)C(=O)[C@H]1NC(=O)c1nnc(Cc2ccccc2)o1 [Example 134, 5-Benzyl-N-((2R,3S)-2,5-dimethyl-4-oxo-2,3,4,5-tetrahydropyrido[3,2-b][1,4]oxazepin-3-yl)-1,3,4-oxadiazole-2-carboxamide]

Rat unbound CL [2]: 65 mL/min/kg
SMILES: C[C@H]1Oc2cccnc2N(C)C(=O)[C@H]1NC(=O)c1ncn(Cc2cccc(C#N)c2)n1 [Example 172]

Rat unbound CL [2, 8]: 420 mL/min/kg
SMILES: C[C@H]1Oc2cccnc2N(C)C(=O)[C@H]1NC(=O)c1nn(Cc2ccccc2)cc1F [Example 92, 1-benzyl-N-((2R,3S)-2,5-dimethyl-4-oxo-2,3,4,5-tetrahydropyrido[3,2-b][1,4]oxazepin-3-yl)-4-fluoro-1H-pyrazole-3-carboxamide]

Cyno unbound CL ([1]; male): 39 mL/min/kg
Rat unbound CL [2, 8]: 61 mL/min/kg
SMILES: CN1C(=O)[C@@H](NC(=O)c2nnc(Cc3ccccc3)o2)COc2cccnc21 [Example 146, (S)-5-benzyl-N-(5-methyl-4-oxo-2,3,4,5-tetrahydropyrido[3,2-b][1,4]oxazepin-3-yl)-1,3,4-oxadiazole-2-carboxamide]

Rat unbound CL [2, 8]: 32 mL/min/kg
SMILES: CN1C(=O)[C@@H](NC(=O)c2ncn(Cc3cccc(C#N)c3)n2)COc2cccnc21 [Example 171, (S)-1-(3-cyanobenzyl)-N-(5-methyl-4-oxo-2,3,4,5-tetrahydropyrido[3,2-b][1,4]oxazepin-3-yl)-1H-1,2,4-triazole-3-carboxamide]

Cyno unbound CL ([1]; male): 40 mL/min/kg
Rat unbound CL [2, 8]: 44 mL/min/kg
SMILES: C[C@H]1Oc2cccnc2N(C)C(=O)[C@H]1NC(=O)c1nnc(Cc2ccccc2)[nH]1 [Example 94, 5-benzyl-N-((2R,3S)-2,5-dimethyl-4-oxo-2,3,4,5-tetrahydropyrido[3,2-b][1,4]oxazepin-3-yl)-4H-1,2,4-triazole-3-carboxamide]
